From BindingDB's records for doi:10.7270/Q2N014XN (Srmlsc, 2007)
Structures can show the parent of a compound that is named as a salt.

Target: T1, Diphosphomevalonate decarboxylase (Streptococcus pneumoniae serotype 2 (strain D39 / NCTC 7466), UniProt A0A0H2ZN59)
T1 sequence (A0A0H2ZN59 whole entry): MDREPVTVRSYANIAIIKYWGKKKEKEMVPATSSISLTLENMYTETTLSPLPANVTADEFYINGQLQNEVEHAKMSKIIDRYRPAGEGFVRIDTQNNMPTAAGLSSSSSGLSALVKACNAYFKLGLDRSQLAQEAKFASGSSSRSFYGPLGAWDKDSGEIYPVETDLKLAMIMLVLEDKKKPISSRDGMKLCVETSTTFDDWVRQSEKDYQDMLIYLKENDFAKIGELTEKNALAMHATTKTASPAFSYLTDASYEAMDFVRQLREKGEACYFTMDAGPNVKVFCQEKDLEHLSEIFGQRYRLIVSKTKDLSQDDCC
Test: diphosphomevalonate decarboxylase inhibition dose curves – biochemical, PK/LDH-coupled NADH fluorescence, hexokinase coupling counter-screen, dose response (AID 550)

[1] = inactive by the depositor's call

SMILES	IC50	IC50 [1]
CCCN(CC(=O)c1cc(C)n(C)c1C)S(=O)(=O)c1cccc(C(F)(F)F)c1 [MLS000055141]	> 10000 µM	–
CCCn1c(=O)c2ccccc2n2c(SCC(=O)C(C#N)C(C)=N)nnc12 (stereo not given) [(E)-3-amino-2-[1-oxo-2-[(5-oxo-4-propyl-[1,2,4]triazolo[4,3-a]quinazolin-1-yl)thio]ethyl]-2-butenenitrile]	> 10000 µM	–
CCOC(=O)c1c(Nc2nc(C)c(C(=O)NC)s2)sc(C)c1C [4,5-dimethyl-2-[[4-methyl-5-(methylcarbamoyl)-2-thiazolyl]amino]-3-thiophenecarboxylic acid ethyl ester]	> 10000 µM	–
CN(c1nc2ccccc2n2c(-c3ccco3)nnc12)S(=O)(=O)c1ccccc1 [MLS000083900]	35.8 µM	–
COc1cc(C2C3=C(CC(C)(C)CC3=O)N=C(C)C2C#N)cc(OC)c1O (stereo not given)	> 10000 µM	–
COc1ccc2c(c1)-c1ccccc1S(=O)(=O)N2C(C)=O [1-(5,5-diketo-9-methoxy-benzo[c][1,2]benzothiazin-6-yl)ethanone]	80.2 µM	–
Cn1c(=O)[nH]c(=O)c2c1nc(NC1CCCCC1)n2Cc1ccccc1 [MLS000083828]	> 10000 µM	–
COc1ccccc1CNc1ncnc2nc[nH]c12 [MLS000101257]	> 10000 µM	–
CCN(CC)S(=O)(=O)c1ccc(NC(=O)c2cccc3c2C(=O)N(CCOC)C3)cc1 [MLS000045293]	50.5 µM	–
COc1cc2c(cc1NC(=O)c1ccc3c(c1)OCO3)oc1ccccc12 [MLS000088875]	> 10000 µM	–
Cc1cc(C(=O)CSc2nnnn2-c2ccc(Cl)cc2)c(C)n1CC1CCCO1 (stereo not given) [2-[1-(4-chlorophenyl)tetrazol-5-yl]sulfanyl-1-[2,5-dimethyl-1-(oxolan-2-ylmethyl)pyrrol-3-yl]ethanone]	> 10000 µM	–
Cc1ccccc1-c1nc2cc(N)ccc2o1 [2-(2-methylphenyl)-1,3-benzoxazol-5-amine]	10.1 µM	–
Cc1c(C(=O)NC2CC2)oc2ccc(S(=O)(=O)N3CCCCCC3)cc12 [5-(1-azepanylsulfonyl)-N-cyclopropyl-3-methyl-2-benzofurancarboxamide]	> 10000 µM	–
CCCC(=O)Nc1ccc(N2CCN(C(=O)CCC)CC2)cc1 [MLS000034431]	> 10000 µM	–
CC(C)c1ccc(-c2nc3c([nH]2)c(=O)n(C)c(=O)n3C)cc1 [1,3-dimethyl-8-(4-propan-2-ylphenyl)-7H-purine-2,6-dione]	21.8 µM	–
COc1cc(NC(=O)c2ccco2)c(OC)cc1NC(=O)CCC(=O)Nc1cc(C)ccc1C [MLS000072545]	> 10000 µM	–
FC(F)(F)c1cc(-c2ccco2)nc(-n2nnc3ccccc32)n1 [1-[4-(2-furanyl)-6-(trifluoromethyl)-2-pyrimidinyl]benzotriazole]	11.2 µM	–
O=S(=O)(Nc1ccc(C(F)(F)F)cc1)c1c[nH]cn1	> 10000 µM	–
Nc1c(C(=O)NCCN2CCOCC2)c2nc3ccccc3nc2n1-c1ccc2c(c1)OCO2 [2-amino-1-(1,3-benzodioxol-5-yl)-N-(2-morpholin-4-ylethyl)pyrrolo[3,2-b]quinoxaline-3-carboxamide]	87.4 µM	–
Cc1csc2ncc(C(=O)Nc3ccccc3Cl)c(=O)n12 [MLS000102002]	–	47.4 µM
CN(C)C(=O)N1CCC(C(=O)NCc2cccs2)CC1 [1-N,1-N-dimethyl-4-N-(thiophen-2-ylmethyl)piperidine-1,4-dicarboxamide]	> 10000 µM	–
COc1cc2c(cc1OC)CN(C(=O)CSc1nnc3scc(-c4ccccc4)n13)CC2 [1-(6,7-dimethoxy-3,4-dihydro-1H-isoquinolin-2-yl)-2-[(5-phenyl-3-thiazolo[2,3-c][1,2,4]triazolyl)thio]ethanone]	584 µM	–
O=C(CN1CCCC1)N1CCCc2c1c(=O)oc1ccc(OCc3ccccc3)cc21 [4-[1-oxo-2-(1-pyrrolidinyl)ethyl]-9-phenylmethoxy-2,3-dihydro-1H-[1]benzopyrano[3,4-b]pyridin-5-one]	24.7 µM	–

SMILES	IC50	IC50 [1]
Cc1ccc(OCCn2c(C)c(C=Nn3cnnc3)c3ccccc32)cc1 [1-[2-methyl-1-[2-(4-methylphenoxy)ethyl]-3-indolyl]-N-(1,2,4-triazol-4-yl)methanimine]	> 10000 µM	–
CC(C)(CO)NC(=O)C(c1ccccc1)c1ccccc1 [MLS000062471]	> 10000 µM	–
Cc1nc2oc3c(NCC4CCCO4)ncnc3c2c2c1COC(C)(C)C2 (stereo not given) [MLS000084527]	22.3 µM	–
COC(=O)Sc1nnc(-c2ccc(Br)cc2)o1 [MLS000084961]	–	16.4 µM
CCCN1C(=O)C(NC(C)=O)c2cc(OC)ccc21 (stereo not given) [MLS000080624]	> 10000 µM	–
CCc1nnc(NC(=O)CSc2nnc(COc3ccccc3)n2Cc2ccccc2)s1 [2-(4-Benzyl-5-phenoxymethyl-4H-[1,2,4]triazol-3-ylsulfanyl)-N-(5-ethyl-[1,3,4]thiadiazol-2-yl)-acetamide]	> 10000 µM	–
Cc1ccc(S(=O)(=O)NCCN2CCOCC2)cc1C [3,4-Dimethyl-N-(2-morpholin-4-yl-ethyl)-benzenesulfonamide]	> 10000 µM	–
Clc1ccc2c(c1)[C@H]1OCC[C@H]1[C@@H](c1ccco1)N2 [(3aS,4S,9bS)-8-chloranyl-4-(furan-2-yl)-2,3,3a,4,5,9b-hexahydrofuro[3,2-c]quinoline]	–	24.4 µM
CCCCC(=O)Nc1ccc(C(N)=O)cc1 [4-(1-oxopentylamino)benzamide]	> 10000 µM	–
O=C(O)c1c(-c2ccccc2)c2oc3ccccc3c2[nH]c1=O	17 µM	–
COc1cccc(C=Nn2c(C)nnc2C)c1OC [(2,3-dimethoxybenzylidene)-(3,5-dimethyl-1,2,4-triazol-4-yl)amine]	> 10000 µM	–
Cc1cccc(Nc2nnc(S)s2)c1C [5-(2,3-dimethylanilino)-3H-1,3,4-thiadiazole-2-thione]	188 µM	–
CCOC(=O)c1cc2nc(Nc3ccc(OC)cc3)sc2s1 [2-(4-methoxyanilino)-5-thieno[3,2-d]thiazolecarboxylic acid ethyl ester]	44.6 µM	–
Nc1nc(N)c2sc3nc4c(cc3c2n1)CCC4 [2,3-Dihydro-1H-9-thia-5,7,10-triaza-cyclopenta[b]fluorene-6,8-diamine]	> 10000 µM	–
COC(=O)c1cc2occc2n1CC(=O)Nc1ccc(OC)c(OC)c1OC [4-[2-keto-2-(2,3,4-trimethoxyanilino)ethyl]furo[3,2-b]pyrrole-5-carboxylic acid methyl ester]	> 10000 µM	–
CC(=NCc1ccco1)c1c(C)[nH]n(-c2nc3ccccc3s2)c1=O [(4Z)-2-(1,3-benzothiazol-2-yl)-4-[1-(furan-2-ylmethylamino)ethylidene]-5-methyl-pyrazol-3-one]	> 10000 µM	–
Nc1cc(N)cc(-c2nc3ccccc3[nH]2)c1 [SMR000008815]	79.1 µM	–
O=C(CCc1nc(-c2ccccc2F)no1)NCCN1CCc2ccccc2C1 [MLS000091170]	> 10000 µM	–
O=C(NCC1CCCO1)c1coc2nc3ccccc3nc12 (stereo not given) [MLS000046703]	30.6 µM	–
CCc1ccc(S(=O)(=O)NCc2cn3ccsc3n2)s1 [5-ethyl-N-(6-imidazo[2,1-b]thiazolylmethyl)-2-thiophenesulfonamide]	> 10000 µM	–
Cc1cnc(SCCc2ccncc2)nc1C [4,5-dimethyl-2-(2-pyridin-4-ylethylsulfanyl)pyrimidine;hydrochloride]	> 10000 µM	–
CCn1c2c(c3cc(C(=O)O)ccc31)CCCC2=O [9-ethyl-1-oxo-2,3,4,9-tetrahydro-1H-carbazole-6-carboxylic acid]	78.5 µM	–
